Laboratory results from patent US20090203708A1, “NOVEL SUBSTITUTED-1-H-QUINAZOLINE-2,4-DIONE DERIVATIVES, PREPARATION METHOD THEREOF AND PHARMACEUTICAL COMPOSITION CONTAINING THE SAME” (Korea Research Institute of Chemical Technology, priority 2006, published 2009).

What was measured:
[1] = system: apomorphine-induced PPI disruption; assay: Apomorphine-induced PPI disruption in rat; conditions: rat
lethality = assay: Lethality (LD50) in mice; assay type: in vivo; conditions: i.p.
rotarod deficit = assay: Rotarod deficit in mice; assay type: in vivo
Procedure: In order to examine the effects of the compounds of the present invention on the central nervous system and behavior, a rotarod test was performed as follows.
Mice were placed on a plastic rod having a node 1 inch in diameter (Ugo-Basile, Milano, Italy), followed by rotating the rod at a speed of 6 rpm. 30, 60, 90 and 120 min after the administration of test compounds, the mice that fell from the rotating rod within 1 min were counted to determine rotarod deficits (%) (Dunham et al., 1957).

[2] = biological target: human serotonin 5-HT6 receptor (Homo sapiens, UniProt P50406); assay: [3H]LSD binding assay for cloned 5-HT6 receptors
Chain of human serotonin 5-HT6 receptor (P50406 whole entry): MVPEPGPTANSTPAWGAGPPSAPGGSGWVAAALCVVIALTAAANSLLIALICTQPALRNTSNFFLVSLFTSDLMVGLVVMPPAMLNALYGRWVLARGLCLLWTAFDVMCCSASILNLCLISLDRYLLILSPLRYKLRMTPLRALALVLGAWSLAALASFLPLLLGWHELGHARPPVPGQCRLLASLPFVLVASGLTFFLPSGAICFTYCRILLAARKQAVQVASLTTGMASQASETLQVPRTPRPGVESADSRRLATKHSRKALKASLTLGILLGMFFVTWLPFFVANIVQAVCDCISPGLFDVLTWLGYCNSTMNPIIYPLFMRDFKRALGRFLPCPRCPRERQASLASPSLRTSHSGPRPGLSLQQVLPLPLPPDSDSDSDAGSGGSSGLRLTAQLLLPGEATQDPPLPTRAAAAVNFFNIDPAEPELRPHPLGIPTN

SMILES: C[C@H](c1ccccc1)n1c(=O)c2c(N3CCNCC3)cc(Cl)cc2n(Cc2ccccc2)c1=O [Example 68, 1-benzyl-7-chloro-3-[(R)-1-phenyl-ethyl]-5-piperazin-1yl-1H-quinazoline-2,4-dione]
- mean startle amplitude versus apomorphine positive control ([1]; given 30 min before apomorphine): did not induce significant difference in mean startle amplitude
- effect of pretreatment on apomorphine-induced PPI disruption ([1]; i.p. 30 min before apomorphine (2 mg/kg, i.p.), 2.5, 5, 10 and 20 mg/kg): found to inhibit apomorphine (2 mg/kg, i.p.)-induced PPI disruption
- Lethal Degrees LD50 (lethality): 152 mg/kg, ip
- Rotarod Deficit TD50 (rotarod deficit; mice, i.p. 30 min before testing): 122 mg/kg, ip
- rotarod dysfunction (rotarod deficit; mouse, in vivo, ip, 150 mg/kg, 120 min): 100%
- IC50 [2]: 6.8 nM
